Measurements reported in US10927067B2, “Organic crystalline salt of haloacetic acid” (priority 2016, dated 2021).

Columns and labels:
MCF7 cells = experiment: zebrafish xenotransplantation tumor model (zebrafish model of hepatocarcinoma), oral dosing with feed for 14 days; format: in vivo
Method: The study was carried out in group sizes of 6 adult fish. Fish were induced with tumor through xenotransplantation of log phase cells. Groups were treated with compounds through oral dosing and treated groups were compared to vehicle treated, to quantify activity against tumor.
Fishes were anesthetized using cold water of 15° C. and 3 ul of 1×10^6 log phase MCF7 cells were injected into the peritoneum to induce tumor. Fish were transferred to housing tanks and maintained for 21 days until tumor reached maximum growth phase.
The stock compound is prepared by dissolving appropriate amount of compound in 1 ml of Phosphate Buffered Saline (PBS—8 g of NaCl, 0.2 g of KCl, 1.44 g of Na2HPO4 and 0.24 g of KH2PO4 is made to 1 litre and pH adjusted to 7.4.) containing 20% DMSO and 30% fish feed grade coconut oil and stored at 4° C. until use.
Fishes were dosed by mixing the compound with feed for 14 days. A per day dosing weight of compound was dissolved in 3 ul of compound dissolving medium and added to a pellet. The pellets were dried at 70 degrees to remove moisture prior to adding compound and post addition and absorption of compound the pellets were transferred to 4° C.
Statistical comparisons were made using GraphPad. Student's t test with a 95% confidence interval was performed using a two-way ANOVA at an alpha=0.05 (95% confidence interval). Significance is denoted with asterisks: ns not significant, *P<0.05, **P<0.01, ***P<0.001, ****P<0.0001.

[1] = DSC, FIG. 5
Method: DSC measurements were carried out using STA 6000 (Simultaneous Thermal Analyzer TG with DSC/DTA).
TGA measurements were carried out using STA 6000 (Simultaneous Thermal Analyzer TG with DSC/DTA).

[2] = crystals from 95% ethanol, Example 3
Method: Mixture of dichloroacetic acid (V) (1.28 g, 1.2894 mmol) and tromethamine (DI) (1.2 g) are dissolved in 10 ml of 95% ethanol.

[3] = 5 mM concentration, 14 days treatment, FIG. 8

Row | Compound | mortality (MCF7 cells; 1 mM concentration, FIG. 7) | relative neovascularization reversal (MCF7 cells; 1 mM concentration, FIG. 7) | tumor reversal (MCF7 cells; 1 mM concentration, FIG. 7) | mortality (MCF7 cells; [3]) | neovascularization reversal (MCF7 cells; 5 mM concentration, FIG. 8) | relative tumor reversal (MCF7 cells; 5 mM concentration, FIG. 8) | thermally stable upto [1] | water solubility [2]
1 | O=C([O-])C(Cl)Cl.[Na+] [Formula (VI), sodium dichloroacetate, reference compound] | 70% | 60% | 40% | 90% | 70% | 50% | – | –
2 | dichloroacetate tromethamine [Formula (VII)] | No mortality | ≤ 90% | ≤ 60% | No mortality | complete | up to 90% | ≤ 150 °C | water soluble
